{"source": "patent US8742106B2", "about": "(Novartis AG, priority 2009, dated 2014)", "key": {"[1]": {"molecular_target": "human orexin 1 receptors (Homo sapiens (Human), UniProt O43613)", "sequence (O43613 whole entry)": "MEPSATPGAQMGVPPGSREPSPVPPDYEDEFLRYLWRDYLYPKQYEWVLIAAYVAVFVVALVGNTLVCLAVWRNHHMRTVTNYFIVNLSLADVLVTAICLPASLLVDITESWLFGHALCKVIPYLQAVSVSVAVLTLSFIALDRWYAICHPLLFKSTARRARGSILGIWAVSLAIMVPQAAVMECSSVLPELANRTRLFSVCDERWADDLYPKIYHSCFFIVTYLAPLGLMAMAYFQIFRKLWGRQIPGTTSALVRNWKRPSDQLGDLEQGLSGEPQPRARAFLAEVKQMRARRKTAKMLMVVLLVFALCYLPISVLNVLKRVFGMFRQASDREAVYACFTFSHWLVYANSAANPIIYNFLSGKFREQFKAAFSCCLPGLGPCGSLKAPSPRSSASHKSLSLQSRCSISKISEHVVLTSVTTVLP", "assay": "Calcium Accumulation in Cells (FLIPR), antagonism of orexin A", "assay_type": "cell-based", "details": "for inhibition at 10 µM: measured at a concentration of 10 μM of compound, read-out: FLIPR hOx1R % inhibition value; for Ki: antagonism of orexin A, Cheng-Prusoff corrected, read-out: FLIPR hOx1R Ki", "experimental": "(§1) Calcium Accumulation in Cells (FLIPR):\nCells expressing human orexin 1 or human orexin 2 receptors, were seeded at 8,000 cells/well in 384 well black-walled clear bottom, poly-D-lysine coated plates. After 24 h, the medium was removed and cells were washed once with phosphate buffered saline and serum-deprived overnight in assay buffer (130 mM NaCl, 5.4 mM KCl, 1.8 mM CaCl2, 0.8 mM MgSO4, 0.9 mM NaH2PO4, 25 mM glucose, 20 mM HEPES, pH 7.4) containing bovine serum albumin (1% w/v).\nOn the day of the experiment, the cells seeded in black plates were treated with assay buffer containing the Ca^2+ sensitive fluorescent dye Fluo4-AM (2 μM), and probenecid (0.1 mM). After 1 h plates were washed twice with, and resuspended in, assay buffer containing probenecid (0.1 mM) using a multi plate washer. The plates were placed into a FLIPR II (Fluorometric Imaging Plate Reader, Molecular Devices, Sunnyvale, Calif., USA) and baseline fluorescence (fluorescence light units, FLU) was measured (5 measurements, 2 S each; laser excitation 488 nm at 0.6-1 W, CCD camera exposure 0.4 s) before addition of buffer alone (basal) or containing test compounds (either compound of formula (I) or (I′) alone, agonist alone or agonist in the presence of various concentrations of compounds of formula (I) or (I′)). Fluorescence measurements were then continued every 1 S for 120 S followed by every 4 S for 240 S.\n(§2) The measurements were typically made in two sequences:\n(§3) In the first round, compounds of formula (I) or (I′) were tested alone, to detect possible agonist activity. Compounds of formula I or I′ were tested usually in a concentration range from 10^−9 M to 10^−5 M.\n(§4) In the second round, performed one hour later (to allow for equilibration), Orexin A was tested either in the absence (calibration curves, Orexin A agonist controls) or in the presence of compounds of formula (I) or (I′) to determine antagonism."}, "[2]": {"molecular_target": "human orexin 2 receptors (Homo sapiens (Human), UniProt O43614)", "sequence (O43614 whole entry)": "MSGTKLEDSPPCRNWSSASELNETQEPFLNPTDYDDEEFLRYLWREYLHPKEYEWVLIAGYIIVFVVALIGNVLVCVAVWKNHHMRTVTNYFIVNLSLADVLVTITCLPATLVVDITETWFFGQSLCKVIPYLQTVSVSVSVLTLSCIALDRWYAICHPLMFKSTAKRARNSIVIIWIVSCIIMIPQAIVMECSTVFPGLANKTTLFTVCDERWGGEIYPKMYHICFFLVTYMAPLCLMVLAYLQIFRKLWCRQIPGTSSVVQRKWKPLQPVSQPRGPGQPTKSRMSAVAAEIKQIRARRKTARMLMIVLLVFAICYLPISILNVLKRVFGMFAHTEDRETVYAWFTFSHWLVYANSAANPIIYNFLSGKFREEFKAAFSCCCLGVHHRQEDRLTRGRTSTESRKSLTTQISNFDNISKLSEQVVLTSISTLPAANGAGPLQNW", "assay": "Calcium Accumulation in Cells (FLIPR), antagonism of orexin A", "assay_type": "cell-based", "details": "for inhibition at 10 µM: measured at a concentration of 10 μM of compound, read-out: FLIPR hOx2R % inhibition value; for Ki: antagonism of orexin A, Cheng-Prusoff corrected, read-out: FLIPR hOx2R Ki", "experimental": "as §1\nCells expressing human orexin 1 or human orexin 2 receptors, were seeded at 8,000 cells/well in 384 well black-walled clear bottom, poly-D-lysine coated plates.\nOn the day of the experiment, the cells seeded in black plates were treated with assay buffer containing the Ca^2+ sensitive fluorescent dye Fluo4-AM (2 μM), and probenecid (0.1 mM). After 1 h plates were washed twice with, and resuspended in, assay buffer containing probenecid (0.1 mM) using a multi plate washer. […] Fluorescence measurements were then continued every 1 S for 120 S followed by every 4 S for 240 S.\nas §2, §3, §4"}}, "data": [{"compound": "CCn1cnnc1C(C)NC(=O)COc1cc(C(F)(F)F)c2c(-c3ccccc3)nn(C)c2n1", "note": "(stereo not drawn) [Example 1.35, N-(1-(4-ethyl-4H-1,2,4-triazol-3-yl)ethyl)-2-(1-methyl-3-phenyl-4-(trifluoromethyl)-1H-pyrazolo[3,4-b]pyridin-6-yloxy)acetamide]", "values": [{"measurement": "inhibition at 10 µM", "setting": "[1]", "value": 22, "unit": "%"}, {"measurement": "inhibition at 10 µM", "setting": "[2]", "value": 22, "unit": "%"}]}, {"compound": "CC(C)c1noc(C(C)NC(=O)COc2cc(C(F)(F)F)c3c(-c4ccccc4)nn(C)c3n2)n1", "note": "(stereo not drawn) [Example 1.36, N-(1-(3-isopropyl-1,2,4-oxadiazol-5-yl)ethyl)-2-(1-methyl-3-phenyl-4-(trifluoromethyl)-1H-pyrazolo[3,4-b]pyridin-6-yloxy)acetamide]", "values": [{"measurement": "Ki", "setting": "[1]", "value": 3360, "unit": "nM"}, {"measurement": "inhibition at 10 µM", "setting": "[2]", "value": 30, "unit": "%"}]}, {"compound": "C[C@H](NC(=O)COc1cc(C(F)(F)F)c2c(C(C)(C)C)nn(C)c2n1)c1ccccc1", "note": "[Example 1.37, (S)-2-(3-tert-butyl-1-methyl-4-(trifluoromethyl)-1H-pyrazolo[3,4-b]pyridin-6-yloxy)-N-(1-phenylethyl)acetamide]", "values": [{"measurement": "Ki", "setting": "[1]", "value": 1950, "unit": "nM"}, {"measurement": "Ki", "setting": "[2]", "value": 298, "unit": "nM"}]}, {"compound": "Cc1nc(C(C)NC(=O)COc2cc(C(F)(F)F)c3c(-c4ccccc4)nn(C)c3n2)c(C)s1", "note": "(stereo not drawn) [Example 1.40, N-(1-(2,5-dimethylthiazol-4-yl)ethyl)-2-(1-methyl-3-phenyl-4-(trifluoromethyl)-1H-pyrazolo[3,4-b]pyridin-6-yloxy)acetamide]", "values": [{"measurement": "inhibition at 10 µM", "setting": "[1]", "value": 37, "unit": "%"}, {"measurement": "Ki", "setting": "[2]", "value": 2900, "unit": "nM"}]}, {"compound": "Cn1nc(-c2ccccc2)c2c(C(F)(F)F)cc(OCC(=O)NCc3ccccc3F)nc21", "note": "[Example 1.42, N-(2-fluorobenzyl)-2-(1-methyl-3-phenyl-4-(trifluoromethyl)-1H-pyrazolo[3,4-b]pyridin-6-yloxy)acetamide]", "values": [{"measurement": "Ki", "setting": "[1]", "value": 1590, "unit": "nM"}, {"measurement": "Ki", "setting": "[2]", "value": 890, "unit": "nM"}]}, {"compound": "Cn1nc(-c2ccccc2)c2c(C(F)(F)F)cc(OCC(=O)NCc3cccc(Cl)c3)nc21", "note": "[Example 1.43, N-(3-chlorobenzyl)-2-(1-methyl-3-phenyl-4-(trifluoromethyl)-1H-pyrazolo[3,4-b]pyridin-6-yloxy)acetamide]", "values": [{"measurement": "inhibition at 10 µM", "setting": "[1]", "value": 24, "unit": "%"}, {"measurement": "Ki", "setting": "[2]", "value": 2060, "unit": "nM"}]}, {"compound": "COc1ccccc1C(C)NC(=O)COc1cc(C(F)(F)F)c2c(-c3ccccc3)nn(C)c2n1", "note": "(stereo not drawn) [Example 1.44, N-(1-(2-methoxyphenyl)ethyl)-2-(1-methyl-3-phenyl-4-(trifluoromethyl)-1H-pyrazolo[3,4-b]pyridin-6-yloxy)acetamide]", "values": [{"measurement": "Ki", "setting": "[1]", "value": 274, "unit": "nM"}, {"measurement": "Ki", "setting": "[2]", "value": 158, "unit": "nM"}]}, {"compound": "C[C@H](NC(=O)COc1cc(C2CC2)c2c(-c3ccccc3)nn(C)c2n1)c1ccccc1", "note": "[Example 1.47, (S)-2-(4-cyclopropyl-1-methyl-3-phenyl-1H-pyrazolo[3,4-b]pyridin-6-yloxy)-N-(1-phenylethyl)acetamide]", "values": [{"measurement": "Ki", "setting": "[1]", "value": 441, "unit": "nM"}, {"measurement": "Ki", "setting": "[2]", "value": 561, "unit": "nM"}]}, {"compound": "C[C@H](NC(=O)COc1cc(C(F)(F)F)c2c(C3CC3)nn(C)c2n1)c1ccccc1", "note": "[Example 1.50, (S)-2-(3-cyclopropyl-1-methyl-4-(trifluoromethyl)-1H-pyrazolo[3,4-b]pyridin-6-yloxy)-N-(1-phenylethyl)acetamide]", "values": [{"measurement": "Ki", "setting": "[1]", "value": 730, "unit": "nM"}, {"measurement": "Ki", "setting": "[2]", "value": 168, "unit": "nM"}]}, {"compound": "C[C@H](NC(=O)COc1cc(C(F)(F)F)c2c(C3CCCCC3)nn(C)c2n1)c1ccccc1", "note": "[Example 1.51, (S)-2-(3-cyclohexyl-1-methyl-4-(trifluoromethyl)-1H-pyrazolo[3,4-b]pyridin-6-yloxy)-N-(1-phenylethyl)acetamide]", "values": [{"measurement": "Ki", "setting": "[1]", "value": 471, "unit": "nM"}, {"measurement": "Ki", "setting": "[2]", "value": 364, "unit": "nM"}]}, {"compound": "C[C@H](NC(=O)COc1cc(C(F)(F)F)c2c(C3CCCC3)nn(C)c2n1)c1ccccc1", "note": "[Example 1.52, (S)-2-(3-cyclopentyl-1-methyl-4-(trifluoromethyl)-1H-pyrazolo[3,4-b]pyridin-6-yloxy)-N-(1-phenylethyl)acetamide]", "values": [{"measurement": "Ki", "setting": "[1]", "value": 1170, "unit": "nM"}, {"measurement": "Ki", "setting": "[2]", "value": 868, "unit": "nM"}]}, {"compound": "Cn1nc(-c2ccccc2)c2c(C(F)(F)F)cc(OCC(=O)NC3CC3)nc21", "note": "[Example 1.53, N-cyclopropyl-2-(1-methyl-3-phenyl-4-(trifluoromethyl)-1H-pyrazolo[3,4-b]pyridin-6-yloxy)acetamide]", "values": [{"measurement": "inhibition at 10 µM", "setting": "[1]", "value": 14, "unit": "%"}, {"measurement": "inhibition at 10 µM", "setting": "[2]", "value": 36, "unit": "%"}]}]}
